Reference: patent US9417245B2, “Porphyrinic compounds for use in flow cytometry” (North Carolina State University, priority 2005, dated 2016)
Where “and” joins values, the source holds several entries; their conditions need not be identical. Identical values can stand only once. Like-named read-outs stand apart in the source and are kept apart here.

How the values were obtained:
[1] = Absorption spectroscopy of chlorins (B and Qy bands, log ε, B/Qy ratio); format: physicochemical; details: for ΔvQy: Example 2 Table 2, redshift relative to the parent chlorin (ZnC or Zn-M^10)
From the text: (§1) The spectral properties of interest in the chlorins include the position of the long-wavelength Qy transition, the intensity of the Qy transition, and the fluorescence quantum yield of the chlorin. The intensity of the Qy transition can be assessed by the measured molar absorption coefficient; however, comparisons of such values are somewhat unreliable given the experimental variability encountered upon handling small quantities of materials. A better comparison is achieved by examination of the ratio of the intensities of the B and Qy bands for a given compound (B/Qy ratio), which is determined simply by absorption spectroscopy without requiring determination of the molar absorption coefficient. For a wide variety of applications, bathochromic and hyperchromic shifts of the Qy band are desired (i.e., shifted to longer wavelength and intensified), thereby affording strong absorption in the deep-red region.
^1H NMR (400 MHz) and ^13C NMR (75 MHz) spectra were collected at room temperature in CDCl3. Absorption spectra were obtained in toluene at room temperature. Chlorins were analyzed by laser desorption mass spectrometry (LD-MS) in the absence of a matrix. Fast atom bombardment mass spectrometry (FAB-MS) data are reported for the molecule ion or protonated molecule ion. Melting points are uncorrected. All commercially available materials were used as received. All palladium-coupling reactions were carried out using standard Schlenk-line techniques.
as §1, with “increased” for “intensified), thereby affording strong absorption”, “intensity).” for “the deep-red region.”
^1H NMR (400 MHz) and ^13C NMR (75 MHz) spectra were collected at room temperature in CDCl3 unless noted otherwise. Absorption spectra were obtained in toluene at room temperature. Chlorins were analyzed by laser desorption mass spectrometry (LD-MS) in the absence of a matrix. Metalation of free base chlorins was monitored by fluorescence spectroscopy. Melting points are uncorrected. All commercially available materials were used as received.

[2] = literature, cited from earlier work; for Qy band position: FIG. 3, natural pigments, in diethyl ether
[3] = Fluorescence spectroscopy (emission bands, fluorescence quantum yield); format: physicochemical; details: in toluene at room temperature
Protocol: The fluorescence spectra and fluorescence quantum yields reported herein were collected in toluene at room temperature. Measurements of fluorescence quantum yield (Φf) were carried out using chlorin Zn-11 (Φf=0.065) as a standard.^16

Compound | ΔvQy ([1]; toluene) | Qy band position ([1]; in toluene at room temperature) | Qy band position [2] | also measured
Cc1cc(C)c(C2=c3cc(C#C[Si](C(C)C)(C(C)C)C(C)C)c4[n]3[Zn][n]3c(cc(C#C[Si](C(C)C)(C(C)C)C(C)C)c3C=C3C=CC2=N3)C=C2N=C(C=4)CC2(C)C)c(C)c1 [ZnC-E^3M^10E^13, Zn(II)-3,13-Bis[2-(triisopropylsilyl)ethynyl]-17,18-dihydro-10-mesityl-18,18-dimethylporphyrin] | 1020 cm⁻¹ | 646 nm | – | –
C=Cc1c(C)c2cc3nc(c4c5[n-]c(cc6nc(cc1[n-]2)C(C=O)=C6CC)c(C)c5C(=O)[C@@H]4C(=O)OC)[C@@H](CCC(=O)OC/C=C(\C)CCC[C@H](C)CCC[C@H](C)CCCC(C)C)[C@@H]3C.[Mg+2] [chlorophyll b] | – | – | 644 nm and 642 nm | –
C=Cc1c(C)c2cc3nc(c4c5[n-]c(cc6nc(cc1[n-]2)C(C)=C6CC)c(C)c5C(=O)[C@@H]4C(=O)OC)[C@@H](CCC(=O)OC/C=C(\C)CCC[C@H](C)CCC[C@H](C)CCCC(C)C)[C@@H]3C.[Mg+2] [chlorophyll a] | – | – | 662 nm | B band position ([2]; chlorophyll a): 430 nm; B/Qy band intensity ratio ([2]; chlorophyll a): 1.3
pheophytin a | – | – | 667 nm | –
CC(=O)c1cc2[n]3c1=CC1=NC(=Cc4ccc([n]4[Zn]3)C(c3ccc(C)cc3)=C3C=CC(=N3)C=2c2c(C)cc(C)cc2C)C(C)(C)C1 [Zn-1, Zn(II)-13-Acetyl-17,18-dihydro-10-mesityl-18,18-dimethyl-5-p-tolylporphyrin] | – | 632 nm and 635 nm | – | B band position ([1]; in toluene at room temperature): 424 nm; B/Qy band intensity ratio ([1]; in toluene at room temperature): 2.9; log ε (Qy band) ([1]; molar absorption coefficient comparison, toluene): 4.75; strong Qy(0,0) / dominant fluorescence band [3]: around 641 nm
CC(=O)c1cc2[n]3c1C=C1CC(C)(C)C(=N1)C=c1ccc([n]1[Zn]3)=CC1=NC(=C2c2c(C)cc(C)cc2C)C=C1 [ZnC-M^10A^13, Zn(II)-13-Acetyl-17,18-dihydro-10-mesityl-18,18-dimethylporphyrin] | 680 cm⁻¹ | 632 nm | – | B/Qy band intensity ratio ([1]; in toluene at room temperature): 2.2
Cc1cc(C)c(C2=c3cc(C#C[Si](C(C)C)(C(C)C)C(C)C)c4[n]3[Zn][n]3c(ccc3C=C3N=C(C=4)CC3(C)C)C=C3C=CC2=N3)c(C)c1 [ZnC-M^10E^13, Zn(II)-13-[2-(Triisopropylsilyl)ethynyl]-17,18-dihydro-10-mesityl-18,18-dimethylporphyrin] | 530 cm⁻¹ | 626 nm | – | –
Cc1ccc(-c2c3nc(c(-c4c(C)cc(C)cc4C)c4cc5c([nH]4)c(c4nc(cc6ccc2[nH]6)C(C)(C)C4)CC5=O)C=C3)cc1 [Compound 2, 18,18-Dimethyl-10-mesityl-13^1-oxo-5-p-tolylphorbine] | – | 660 nm | – | –
C=Cc1cc2[n]3c1C=C1C=CC(=N1)C(c1c(C)cc(C)cc1C)=c1ccc([n]1[Zn]3)=CC1=NC(=C2)C(C)(C)C1 [ZnC-V^3M^10] | 400 cm⁻¹ | 621 nm | – | –
CC(=O)c1cc2[n]3c1C=C1CC(C)(C)C(=N1)C=c1cc(C#C[Si](C(C)C)(C(C)C)C(C)C)c([n]1[Zn]3)=CC1=NC(=C2c2c(C)cc(C)cc2C)C=C1 [ZnC-E^3M^10A^13, Zn(II)-13-Acetyl-3-[2-(triisopropylsilyl)ethynyl]-17,18-dihydro-10-mesityl-18,18-dimethylporphyrin] | 1160 cm⁻¹ | 652 nm | – | –
